We go through one molecule from paper PMC4841536, “Characterization of the Anti-HCV Activities of the New Cyclophilin Inhibitor STG-175” (PLoS ONE, 2016).

The test system of this assay is HIV-1 (JR-CSF) in activated PBMCs. As to the kind of experiment: Mono-infection, HIV-1 capsid/p24 ELISA. The format is cell-based. The note with it: added together with virus, 12 days. An excerpt: For mono-infections: a) human hepatoma Huh7.5.1 cells were infected with HCV (JFH-1) and viral replication was quantified by HCV core ELISA (Ortho HCV antigen ELISA kit; Ortho Clinical Diagnostics, Waco Chemicals, Inc. or HCV Core ELISA, XpressBio); b) sodium-taurocholate co-transporting polypeptide (NTCP)-positive Huh7 cells were infected with hepatitis B virus (HBV) AD38 (produced from HepAD38 cells) and viral replication was quantified by HBV HBeAg ELISA; and c) human (peripheral blood monocytic cells (PBMCs) were infected with HIV-1 (JR-CSF) and viral replication was quantified by HIV-1 capsid/p24 ELISA. PBMCs were isolated as described previously. The Scripps Research Institute Normal Blood Donor Service (TSRI NBDS) provides TSRI investigators who have Human Subjects Committee-approved protocols with a source of normal blood for their research. Donors are assured of a controlled clinical setting for their blood to be drawn by licensed phlebotomists, and investigators are assured that the donors whose specimens they obtain through the service have been screened upon entry into the program and annually thereafter for a CBC, Hepatitis B and C and HIV-1. Hemoglobin determinations at every donation protect the donor from phlebotomy-induced anemia. […]
For orientation: ELISA stands for enzyme-linked immunosorbent assay.

Each structure is given as a SMILES string.

As to `CC=CCC(C)C(O)C1C(=O)NC(CC)C(=O)N(C)C(CSCCCCO)C(=O)N(C)C(CC(C)(C)O)C(=O)NC(C(C)C)C(=O)N(C)C(CC(C)C)C(=O)NC(C)C(=O)NC(C)C(=O)N(C)C(CC(C)C)C(=O)N(C)C(CC(C)C)C(=O)N(C)C(C(C)C)C(=O)N1C` (centres unmarked) [STG-175], the “HIV-1 infection (HIV-1 capsid ELISA)” value is “significantly decreased infection” (0.5 μM) and “fully blocked” (5 μM).
